Test results reported in patent publication US10392404B2, “Compounds and compositions as kinase inhibitors” (NOVARTIS AG, priority 2014, dated 2019).

Key:
C-RAF = target: T1, C-RAF (Homo sapiens, UniProt P04049, Y340E/Y341E); assay: In vitro Raf activity determination (Alpha Screen, biotinylated kinase-dead MEK1 substrate), C-Raf; type: biochemical; details: c-Raf approximately 4 nM; ATP 1 μM; pre-incubation 60 minutes; reaction 1 hour at room temperature
T1 construct: His tag (implied by nickel chromatography) (cleaved yes); StrepII tag (cleaved yes); made in house; host or cells: Sf9 insect cells (baculovirus), CRAF and h14-3-3 zeta co-expressed; MEK1 substrate from E. coli
Summary of the method: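 Full-length C-Raf carrying Y340E/Y341E, co-expressed with 14-3-3ζ in Sf9 cells, at approximately 4 nM, with approximately 10 nM biotinylated kinase-dead MEK1 (K97R) and 1 μM ATP, pH 7.5. Compound preincubated 60 min, reaction 1 hour at room temperature. Phospho-MEK read by AlphaScreen; IC50 by non-linear regression.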

b-Raf (V600E) = target: T2, b-Raf (V600E) (Homo sapiens, UniProt P15056, V600E); assay: In vitro Raf activity determination (Alpha Screen, biotinylated kinase-dead MEK1 substrate), B-Raf; type: biochemical; details: b-Raf (V600E) approximately 4 pM; ATP 10 μM; pre-incubation 60 minutes; reaction 3 hours at room temperature
T2 construct: made in house
Summary of the method: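 Activated b-Raf(V600E) (~4 pM) pre-incubated 60 min with compound and biotinylated kinase-dead (K97R) MEK1 (~10 nM), then reacted 3 h at room temperature with 10 μM ATP in 50 mM Tris pH 7.5, 15 mM MgCl2, 0.01% BSA, 1 mM DTT. Phospho-MEK detected by AlphaScreen; IC50 by non-linear regression.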

T1 sequence (P04049 whole entry Y340E/Y341E): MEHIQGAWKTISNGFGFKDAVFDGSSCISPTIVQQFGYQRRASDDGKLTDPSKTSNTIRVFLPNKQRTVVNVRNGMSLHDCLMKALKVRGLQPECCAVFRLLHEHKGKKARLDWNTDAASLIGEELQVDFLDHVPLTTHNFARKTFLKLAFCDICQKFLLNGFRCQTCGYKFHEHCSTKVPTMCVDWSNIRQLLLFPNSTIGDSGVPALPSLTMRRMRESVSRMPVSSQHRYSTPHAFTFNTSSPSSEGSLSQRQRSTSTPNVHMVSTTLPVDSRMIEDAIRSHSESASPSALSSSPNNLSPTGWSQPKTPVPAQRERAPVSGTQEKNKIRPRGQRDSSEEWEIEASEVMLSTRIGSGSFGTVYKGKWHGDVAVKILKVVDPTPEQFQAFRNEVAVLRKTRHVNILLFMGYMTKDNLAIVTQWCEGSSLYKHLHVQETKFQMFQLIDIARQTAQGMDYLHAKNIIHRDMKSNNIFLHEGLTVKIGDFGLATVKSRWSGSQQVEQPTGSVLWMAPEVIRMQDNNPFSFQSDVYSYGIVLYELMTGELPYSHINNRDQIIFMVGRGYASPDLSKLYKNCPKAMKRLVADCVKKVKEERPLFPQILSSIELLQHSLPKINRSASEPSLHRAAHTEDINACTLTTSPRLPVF
T1 sequence (P63104 whole entry partner): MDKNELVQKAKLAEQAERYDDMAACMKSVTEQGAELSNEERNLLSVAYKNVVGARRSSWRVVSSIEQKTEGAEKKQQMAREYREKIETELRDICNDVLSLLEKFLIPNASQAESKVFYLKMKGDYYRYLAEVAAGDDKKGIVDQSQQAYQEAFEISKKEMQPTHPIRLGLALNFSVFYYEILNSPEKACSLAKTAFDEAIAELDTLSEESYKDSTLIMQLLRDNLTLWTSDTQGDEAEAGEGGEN
T2 sequence (P15056 whole entry V600E): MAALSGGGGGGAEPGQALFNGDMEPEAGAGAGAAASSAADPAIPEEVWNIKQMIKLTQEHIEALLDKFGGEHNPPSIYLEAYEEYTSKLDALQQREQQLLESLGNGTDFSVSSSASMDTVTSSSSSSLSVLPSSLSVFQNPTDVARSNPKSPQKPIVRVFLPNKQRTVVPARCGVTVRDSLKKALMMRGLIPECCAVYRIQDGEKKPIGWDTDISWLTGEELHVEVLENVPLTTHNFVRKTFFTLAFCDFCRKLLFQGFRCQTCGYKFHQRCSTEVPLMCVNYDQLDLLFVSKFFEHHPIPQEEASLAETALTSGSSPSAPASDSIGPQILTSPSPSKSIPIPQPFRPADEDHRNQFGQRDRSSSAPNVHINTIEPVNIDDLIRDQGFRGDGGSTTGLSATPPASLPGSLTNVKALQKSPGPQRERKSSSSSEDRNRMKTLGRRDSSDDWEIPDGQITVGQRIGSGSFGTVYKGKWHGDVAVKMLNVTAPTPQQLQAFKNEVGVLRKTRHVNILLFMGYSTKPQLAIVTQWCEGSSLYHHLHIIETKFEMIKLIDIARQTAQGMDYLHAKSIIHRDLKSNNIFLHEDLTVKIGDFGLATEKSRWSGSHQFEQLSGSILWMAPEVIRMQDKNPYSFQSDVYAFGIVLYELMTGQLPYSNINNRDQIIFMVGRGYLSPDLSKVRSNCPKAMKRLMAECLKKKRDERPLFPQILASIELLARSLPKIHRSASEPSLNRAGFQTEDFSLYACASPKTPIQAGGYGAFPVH

Row | Structure (SMILES) | IC50 (C-RAF) [nM] | IC50 (b-Raf (V600E)) [nM]
1 | COCCNc1ncc(-c2cc(NC(=O)c3cnnc(C(F)(F)F)c3)ccc2C)cc1C#N [Example 179, N-(3-(5-cyano-6-((2-methoxyethyl)amino)pyridin-3-yl)-4-methylphenyl)-6-(trifluoromethyl) pyridazine-4-carboxamide] | 0.588 | 4.11
2 | Cc1ncc(NC(=O)c2cccc(C(F)F)c2)cc1-c1cnc(N2CC(C)(O)C2)c(C#N)c1 [Example 184, N-(5′-cyano-6′-(3-hydroxy-3-methylazetidin-1-yl)-2-methyl-[3,3′-bipyridin]-5-yl)-3-(difluoromethyl) benzamide] | 1.14 | 7.88
3 | Cc1ncc(NC(=O)c2cccc(S(C)(=O)=O)c2)cc1-c1cnc(N2CC(C)(O)C2)c(C#N)c1 [Example 187, N-(5′-cyano-6′-(3-hydroxy-3-methylazetidin-1-yl)-2-methyl-[3,3′-bipyridin]-5-yl)-3-(methylsulfonyl) benzamide] | 4.2 | 26.6
4 | Cc1ncc(NC(=O)c2ccnc(C3CC3)c2)cc1-c1cnc(N2CC(C)(O)C2)c(C#N)c1 [Example 188, N-(5′-cyano-6′-(3-hydroxy-3-methylazetidin-1-yl)-2-methyl-[3,3′-bipyridin]-5-yl)-2-cyclopropyl-isonicotinamide] | 1.76 | 9.92
5 | Cc1ncc(NC(=O)c2ccnc(C3(C#N)CC3)c2)cc1-c1cnc(N2CC(C)(O)C2)c(C#N)c1 [Example 189, N-(5′-cyano-6′-(3-hydroxy-3-methylazetidin-1-yl)-2-methyl-[3,3′-bipyridin]-5-yl)-2-(1-cyanocyclopropyl) isonicotinamide] | 0.39 | 3.41
6 | COCCNc1ncc(-c2cc(NC(=O)c3ccnc(C(F)F)c3)cnc2C)cc1C#N [Example 196, N-(5′-cyano-6′-((2-methoxyethyl)amino)-2-methyl-[3,3′-bipyridin]-5-yl)-2-(difluoromethyl) isonicotinamide] | 2.14 | 16.1
7 | COCCNc1ncc(-c2cc(NC(=O)c3ccnc(C4(C#N)CC4)c3)cnc2C)cc1C#N [Example 197, N-(5′-cyano-6′-((2-methoxyethyl)amino)-2-methyl-[3,3′-bipyridin]-5-yl)-2-(1-cyanocyclopropyl) isonicotinamide] | 0.818 | 5.23
8 | COCCNc1ncc(-c2cc(NC(=O)c3ccnc(C(C)(C)C#N)c3)cnc2C)cc1C#N [Example 198, N-(5′-cyano-6′-((2-methoxyethyl)amino)-2-methyl-[3,3′-bipyridin]-5-yl)-2-(2-cyanopropan-2-yl)isonicotinamide] | 4.06 | 13.4
9 | COCCNc1ncc(-c2cc(NC(=O)c3cccc(C(F)F)c3)cnc2C)cc1C#N [Example 199, N-(5′-cyano-6′-((2-methoxyethyl)amino)-2-methyl-[3,3′-bipyridin]-5-yl)-3-(difluoromethyl) benzamide] | 0.386 | 2.62
10 | Cc1ncc(NC(=O)c2cnnc(C3CC3)c2)cc1-c1cnc(NC2CCOCC2)c(C#N)c1 [Example 200, N-(5′-cyano-2-methyl-6′-((tetrahydro-2H-pyran-4-yl)amino)-[3,3′-bipyridin]-5-yl)-6-cyclopropylpyridazine-4-carboxamide] | 2.38 | 15.2
11 | COCCNc1ncc(-c2cc(NC(=O)c3cnnc(C(C)(C)C#N)c3)ccc2C)cc1C#N [Example 201, N-(3-(5-cyano-6-((2-methoxyethyl)amino)pyridin-3-yl)-4-methylphenyl)-6-(2-cyanopropan-2-yl)pyridazine-4-carboxamide] | 0.447 | 3.04
12 | COCCNc1ncc(-c2cc(NC(=O)c3cnnc(C(C)(C)C#N)c3)cnc2C)cc1C#N [Example 202, N-(5′-cyano-6′-((2-methoxyethyl)amino)-2-methyl-[3,3′-bipyridin]-5-yl)-6-(2-cyanopropan-2-yl)pyridazine-4-carboxamide] | 4.82 | 32.6
13 | COCCNc1ncc(-c2cc(NC(=O)c3cnnc(C(F)(F)F)c3)cnc2C)cc1C#N [Example 203, N-(5′-cyano-6′-((2-methoxyethyl)amino)-2-methyl-[3,3′-bipyridin]-5-yl)-6-(trifluoromethyl) pyridazine-4-carboxamide] | 8.17 | 48.2
14 | Cc1ccc(NC(=O)c2cnnc(C(C)(C)C#N)c2)cc1-c1cnc(NC2CCOCC2)c(C#N)c1 [Example 204, N-(3-(5-cyano-6-((tetrahydro-2H-pyran-4-yl)amino)pyridin-3-yl)-4-methylphenyl)-6-(2-cyanopropan-2-yl)pyridazine-4-carboxamide] | 0.219 | 1.45
15 | Cc1ncc(NC(=O)c2cnnc(C(C)(C)C#N)c2)cc1-c1cnc(NC2CCOCC2)c(C#N)c1 [Example 205, N-(5′-cyano-2-methyl-6′-((tetrahydro-2H-pyran-4-yl)amino)-[3,3′-bipyridin]-5-yl)-6-(2-cyanopropan-2-yl)pyridazine-4-carboxamide] | 1.82 | 10.9
16 | Cc1ccc(NC(=O)c2cnnc(C(C)(C)C#N)c2)cc1-c1cnc(N2CCOCC2)c(C#N)c1 [Example 206, N-(3-(5-cyano-6-morpholinopyridin-3-yl)-4-methylphenyl) 6-(2-cyanopropan-2 yl)pyridazine-4-carboxamide] | 0.199 | 1.23

Second part, the compound after the results:

Row | IC50 (C-RAF) [nM] | IC50 (b-Raf (V600E)) [nM] | Structure (SMILES)
17 | 1.31 | 8.46 | Cc1ncc(NC(=O)c2ccnc(C(F)(F)F)c2)cc1-c1cnc(N2CC(C)(O)C2)c(C#N)c1 [Example 180, N-(5′-cyano-6′-(3-hydroxy-3-methylazetidin-1-yl)-2-methyl-[3,3′-bipyridin]-5-yl)-2-(trifluoromethyl) isonicotinamide]
18 | 16.8 | 112 | Cc1ncc(NC(=O)c2cnnc(C(F)(F)F)c2)cc1-c1cnc(N2CC(C)(O)C2)c(C#N)c1 [Example 181, N-(5′-cyano-6′-(3-hydroxy-3-methylazetidin-1-yl)-2-methyl-[3,3′-bypyridin]-5-yl)-6-(trifluoromethyl) pyridazine-4-carboxamide]
19 | 7.49 | 58.8 | Cc1ncc(NC(=O)c2ccnc(C(F)F)c2)cc1-c1cnc(N2CC(C)(O)C2)c(C#N)c1 [Example 182, N-(5′-cyano-6′-(3-hydroxy-3-methylazetidin-1-yl)-2-methyl-[3,3′-bipyridin]-5-yl)-2-(difluoromethyl) isonicotinamide]
20 | 0.824 | 5.79 | Cc1ncc(NC(=O)c2ccnc(C(C)(F)F)c2)cc1-c1cnc(N2CC(C)(O)C2)c(C#N)c1 [Example 183, N-(5′-cyano-6′-(3-hydroxy-3-methylazetidin-1-yl)-2-methyl-[3,3′-bipyridin]-5-yl)-2-(1,1-difluoroethyl) isonicotinamide]
21 | 11 | 61 | Cc1ncc(NC(=O)c2ccnc(C(C)(C)O)c2)cc1-c1cnc(N2CC(C)(O)C2)c(C#N)c1 [Example 185, N-(5′-cyano-6′-(3-hydroxy-3-methylazetidin-1-yl)-2-methyl-[3,3′-bipyridin]-5-yl)-2-(2-hydroxypropan-2-yl)isonicotinamide]
22 | 10.2 | 52.6 | Cc1ncc(NC(=O)c2cnnc(C(C)(C)C#N)c2)cc1-c1cnc(N2CC(C)(O)C2)c(C#N)c1 [Example 186, N-(5′-cyano-6′-(3-hydroxy-3-methylazetidin-1-yl)-2-methyl-[3,3′-bipyridin]-5-yl)-6-(2-cyanopropan-2-yl)pyridazine-4-carboxamide]
23 | 29.1 | 178 | Cc1ncc(NC(=O)c2cnnc(C3CC3)c2)cc1-c1cnc(N2CC(C)(O)C2)c(C#N)c1 [Example 190, N-(5′-cyano-6′-(3-hydroxy-3-methylazetidin-1-yl)-2-methyl-[3,3′-bipyridin]-5-yl)-6-cyclopropyl-pyridazine-4-carboxamide]
24 | 5.21 | 30.6 | CCn1cc(C(=O)Nc2cnc(C)c(-c3cnc(N4CC(C)(O)C4)c(C#N)c3)c2)cc(C(F)(F)F)c1=O [Example 191, N-(5′-cyano-6′-(3-hydroxy-3-methylazetidin-1-yl)-2-methyl-[3,3′-bipyridin]-5-yl)-1-ethyl-6-oxo-5-(trifluoromethyl)-1,6-dihydropyridine-3-carboxamide]
25 | 1.15 | 5.13 | CCC(F)(F)c1cc(C(=O)Nc2cnc(C)c(-c3cnc(N4CC(C)(O)C4)c(C#N)c3)c2)ccn1 [Example 192, N-(5′-cyano-6′-(3-hydroxy-3-methylazetidin-1-yl)-2-methyl-[3,3′-bipyridin]-5-yl)-2-(1,1-difluoropropyl) isonicotinamide]
26 | 1.75 | 7.91 | Cc1ncc(NC(=O)c2ccnc(C(C)(C)F)c2)cc1-c1cnc(N2CC(C)(O)C2)c(C#N)c1 [Example 193, N-(5′-cyano-6′-(3-hydroxy-3-methylazetidin-1-yl)-2-methyl-[3,3′-bipyridin]-5-yl)-2-(2-fluoropropan-2-yl)isonicotinamide]
27 | 0.285 | 1.53 | Cc1ccc(NC(=O)c2cnnc(C(C)(C)F)c2)cc1-c1cnc(N2CC(C)(O)C2)c(C#N)c1 [Example 194, N-(3-(5-cyano-6-(3-hydroxy-3-methylazetidin-1-yl)pyridin-3-yl)-4-methylphenyl)-6-(2-fluoropropan-2-yl)pyridazine-4-carboxamide]
